Measurements from patent US10947243B2, “Heteroaryl SYK inhibitors” (Boehringer Ingelheim International GmbH, priority 2014, dated 2021).
Like-named read-outs stand apart in the source and are kept apart here.

Columns and labels:
[1] = Human Liver Microsomal Stability Test; type: in vitro ADME; settings: human liver microsomes
Method: The metabolic degradation for a specific SYK-inhibitor is performed at 37° C. with pooled human liver microsomes (human liver microsomes are commercially available as “BD UltraPool™” by Corning Life Sciences, Fogostraat 12, 1060 LJ Amsterdam, The Netherlands). The final incubation volume of 100 μl per time point contains TRIS buffer pH 7.6 at RT (0.1 M), magnesium chloride (5 mM), microsomal protein (1 mg/ml) and the test compound at a final concentration of 1 μM.
Following a short preincubation period at 37° C., the reaction is initiated by addition of beta-nicotinamide adenine dinucleotide phosphate in its reduced form (NADPH, 1 mM) and terminated by transfering an aliquot into solvent after different time points. Additionally, the NADPH-independent degradation is monitored in incubations without NADPH, terminated at the last time point.
The quenched (terminated) incubations are then pelleted by centrifugation (10000 g, 5 min).
An aliquot of the supernatant is assayed by LC-MS/MS for the remaining amount of parent compound. The half-life (t½ INVITRO) is determined by the slope of the semilogarithmic plot of the concentration-time profile.
The intrinsic clearance (CL_[…]) is calculated by considering the amount of protein in the incubation: CL_[…] [μl/min/mg protein]=(Ln 2/(t½INVITRO [min]*protein content [mg/ml]))*1000
The protein content [mg/ml] was determined with the “Bicinchoninic Acid Kit” of Sigma Aldrich (commercially available).
The upscaled intrinsic Clearance (CL_UP_INT) is calcuated by considering the liver weight [g liver/kg body weight] and the microsomal recovery [mg protein/g liver]: CL_UP_INT [ml/min/kg]=0.001*CL_[…]*liver weight*microsomal recovery • with microsomal recovery=45 mg protein/g liver • with liver weight=25.7 g liver/kg body weight
The percent hepatic blood flow (% Qh) is finally calculated by considering the human liver blood flow Q [ml/min/kg]: % Qh [%]=((Q*CL_UP_INT)/(Q+CL_UP_INT)/Q)*100 • with liver blood flow (Q)=20.7 ml/min/kg.

FLT3 = FLT3 (Homo sapiens (Human), UniProt P36888); assay: FLT3 Kinase Test (Z'-LYTE); type: biochemical
Method: The activity of FLT3 is measured using the Z′-LYTE™ assay technology from Invitrogen (#PV3191)
The reaction is started by addition of 2.5 μl of the 4×ATP solution.
(§1) Positive controls are reaction mixtures containing no test compound; negative controls (blanks) are reaction mixtures containing no kinase. As a further control, the phosphopeptide solution is added to wells without kinase (=100% phosphorylation control).
The reaction is performed for 1 h at room temperature before 5 μl of the development solution is added. After a further incubation for 1 h at room temperature 5 μl of the stop reagent is added.
The output text file is evaluated in an “MS-Excel-VB-Makro” and “GraphPadPrism” (Version 5) (GraphPad Software Inc.) is used to calculate the results. Data for the inhibition of FLT3 are reported in M. data for the inhibition of the protease are reported in % CTL.

[2] = biological target: Recombinant human Aurora B (amino acids 1-344) (Homo sapiens (Human), UniProt Q96GD4); assay: Aurora B Kinase Test (ADP Glo luminescence); type: biochemical
Method: The activity of the Aurora B kinase protein was determined using the ADP Glo® Luminescence Kinase test (Promega; V9103X).
Serial Dilution is done in 1:10 steps in 100% DMSO.
Then 20 μl Kinase detection mix (Detection Buffer #V913B Promega; Kinase Detection Substrate #V914B Promega) were added and incubated for 40 minutes at room temperature.
(§2) The output file of the reader is a csv file that contains the well number and measured RLU. For data evaluation and calculation, the measurement of the negative control was set as 0% ctrl and the measurement of the positive control was set as 100% ctrl. Based on this values the % value for the measurement of each substance concentration was calculated using an Assay Explorer software (Accelrys). Normally, the % ctrl values calculated are between 0% and 100% values but may also occur outside these limits in individual cases based on variability or compound characteristics. The IC50 values were calculated from the % ctrl values using Assay Explorer software. Calculation: [y=(a−d)/(1+(x/c)^b)+d], a=low value, d=high value; x=conc M; c=IC50 M; b=hill; y=% ctrl.

[3] = biological target: Recombinant human Syk (amino acids 342-635) (Homo sapiens (Human), UniProt P43405); assay: Syk Kinase Test (Kinase Glo luminescence); type: biochemical
Method: as §2, with “measured relative light units (RLU).” for “measured RLU.”, “as 100%” for “as 0%”, “as 0%” for “as 100%”, “Calculation: [y=(a−d)/(1+(x/c)^b)+d]” for “Calculation: [y=(a−d)/(1+(x/c)^b)+d],”

Human GSK3beta = Human GSK3beta (Homo sapiens (Human), UniProt P49841); assay: GSK 3β Kinase-Test (Z'-LYTE); type: biochemical; settings: comparison compounds, read-out: IC50 in μM (GSK3beta-Inhibition)
Method: Human GSK3beta (expressed and prified from SF21 cells) is obtained from the University Dundee/Scotland (Dr. James Hastie—Dept. of Biochemistry) in 50 mM Tris (pH7.5); 150 mM NaCl; 0.1 mM EGTA, 270 mM Succrose, 0.1% B-mercaptoethanol, 1 mM benzamidine, 0.2 mM PMSF; sequence see below). The enzyme is diluted to 3.56 μM (168 μg/ml) in enzyme dilution buffer and 6 μl aliquots are stored at −80° C.
The activity of GSK3 kinase protein is measured using the Z′-LYTE™ assay technology from Invitrogen (# PV3324).
The assay is performed in 384 black plates from Corning (#3676) in a final volume of 10 μl by adding 5 μl of kinase peptide mix and 2.5 μl of compound dilution. The reaction is started by addition of 2.5 μl of the 4×ATP solution.
as §1, with “ATP.” for “kinase.”, “kinase and without ATP” for “kinase”, “control). The non inhibited kinase reaction will result in a phosphorylation corresponding to 20%-30% of the phosphorylation control.” for “control).”
The reaction is performed 1 h at room temperature. After 1 h 5 μl of the development solution is added. After a further incubation for 1 h at room temperature 5 μl of the stop reagent is added. Finally the plates are read on a Flex Station II 384 (Molecular Devices).
The output text file is evaluated in an “MS-Excel-VB-Makro” and “GraphPadPrism” (Version 5) (GraphPad Software Inc.) is used to calculate the results. Data for the inhibition of GSK3beta are reported in M. data for the inhibition of the protease are reported in % CTL.

[4] = comparison compounds, Example numbers of WO 2013/014060
[5] = comparison compounds, Example numbers of WO 2013/014060, read-out: IC50 in μM (FLT3-Inhibition)
[6] = comparison compounds, Example numbers of WO 2013/014060, read-out: IC50 in μM (AURB-Inhibition)
[7] = comparison compounds, Example numbers of WO 2013/014060, read-out: IC50 in μM (SYK-Inhibition)
[8] = Example numbers of WO 2013/014060
[9] = comparison compounds, Example numbers of WO 2011/092128, read-out: IC50 in μM (FLT3-Inhibition)
[10] = comparison compounds, Example numbers of WO 2011/092128, read-out: IC50 in μM (AURB-Inhibition)
[11] = comparison compounds, Example numbers of WO 2011/092128, read-out: IC50 in μM (SYK-Inhibition)
[12] = compounds of the invention (own Example numbers)

Chain of Recombinant human Aurora B (amino acids 1-344) (Q96GD4 whole entry, the tested form may be a part): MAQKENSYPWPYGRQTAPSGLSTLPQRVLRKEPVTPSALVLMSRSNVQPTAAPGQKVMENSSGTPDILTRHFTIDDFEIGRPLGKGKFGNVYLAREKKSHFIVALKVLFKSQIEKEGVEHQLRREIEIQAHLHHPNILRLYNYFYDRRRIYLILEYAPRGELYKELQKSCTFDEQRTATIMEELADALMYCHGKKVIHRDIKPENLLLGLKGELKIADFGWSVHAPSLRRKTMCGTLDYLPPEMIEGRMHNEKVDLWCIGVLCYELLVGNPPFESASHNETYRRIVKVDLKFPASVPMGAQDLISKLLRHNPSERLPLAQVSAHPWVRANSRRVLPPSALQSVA
Chain of Human GSK3beta (P49841 whole entry): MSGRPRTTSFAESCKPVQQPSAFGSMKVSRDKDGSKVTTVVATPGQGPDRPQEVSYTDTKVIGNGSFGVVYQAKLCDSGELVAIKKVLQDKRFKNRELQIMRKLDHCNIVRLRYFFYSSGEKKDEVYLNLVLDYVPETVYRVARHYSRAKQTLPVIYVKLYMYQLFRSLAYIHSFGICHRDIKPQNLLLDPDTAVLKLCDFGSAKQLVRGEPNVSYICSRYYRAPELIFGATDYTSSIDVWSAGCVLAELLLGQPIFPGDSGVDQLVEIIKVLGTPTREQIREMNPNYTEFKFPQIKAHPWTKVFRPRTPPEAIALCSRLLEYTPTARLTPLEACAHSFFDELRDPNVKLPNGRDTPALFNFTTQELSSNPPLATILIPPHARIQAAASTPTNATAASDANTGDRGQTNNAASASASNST
Chain of FLT3 (P36888 564-958): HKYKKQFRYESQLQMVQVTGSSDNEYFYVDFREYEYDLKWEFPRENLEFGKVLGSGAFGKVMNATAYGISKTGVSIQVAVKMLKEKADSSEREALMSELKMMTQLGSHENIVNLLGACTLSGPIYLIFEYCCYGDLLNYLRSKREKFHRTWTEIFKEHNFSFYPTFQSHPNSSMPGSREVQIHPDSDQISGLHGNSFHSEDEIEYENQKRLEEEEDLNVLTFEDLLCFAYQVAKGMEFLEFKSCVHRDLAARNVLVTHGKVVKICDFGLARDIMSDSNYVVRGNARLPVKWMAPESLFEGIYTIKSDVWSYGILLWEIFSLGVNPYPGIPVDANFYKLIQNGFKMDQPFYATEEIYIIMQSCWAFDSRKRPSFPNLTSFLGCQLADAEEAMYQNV

C[C@@H](Oc1nc(-c2cc3nn(C)cc3c(O[C@H](C)[C@H]3CNC(=O)C3)n2)cc2nn(C)cc12)[C@@H]1CNC(=O)C1 [Example 11, (4S)-4-[(1R)-1-[2-methyl-6-[2-methyl-4-[(1R)-1-[(3R)-5-oxopyrrolidin-3-yl]ethoxy]-pyrazolo[4,3-c]pyridin-6-yl]pyrazolo[4,3-c]pyridin-4-yl]oxyethyl]pyrrolidin-2-one]
microsomal stability Cl [% Qh] [1, 4]: 24 % Qh
IC50 (FLT3; [5]): 0.738 µM
IC50 [2, 6]: 0.752 µM
IC50 [3, 7]: 0.002 µM
IC50 (Human GSK3beta; [8]): > 10 µM

C[C@@H](Oc1nc(-c2cnn(C3CCCCC3)c2)cc2nn(C)cc12)[C@H]1CNC(=O)C1 [Example 7, (R)-4-((R)-1-(6-(1-cyclohexyl-1H-pyrazol-4-yl)-2-methyl-2H-pyrazolo[4,3-c]pyridin-4-yloxy)ethyl)pyrrolidin-2-one]
microsomal stability Cl [% Qh] ([1]; comparison compounds, Example numbers of WO 2011/092128): 79 % Qh
IC50 (FLT3; [9]): 0.452 µM
IC50 [2, 10]: 2.33 µM
IC50 [3, 11]: 0.002 µM
IC50 (Human GSK3beta; Example numbers of WO 2011/092128): > 10 µM

CC(C)n1cc(-c2cc(O[C@H](C)[C@H]3CNC(=O)C3)c3cccnc3c2)cn1 [compound 115]
microsomal stability Cl [% Qh] [1, 4]: <23 % Qh
IC50 (FLT3; [5]): 0.041 µM
IC50 [2, 6]: 0.021 µM
IC50 [3, 7]: 0.0002 µM
IC50 (Human GSK3beta; [8]): > 10 µM

CCCn1cc(-c2cc(O[C@H](C)[C@H]3CNC(=O)C3)c3cccnc3c2)cn1 [compound 114]
microsomal stability Cl [% Qh] [1, 4]: 26 % Qh
IC50 (FLT3; [5]): 0.049 µM
IC50 [2, 6]: 2.54 µM
IC50 (Human GSK3beta; [8]): > 10 µM

C[C@@H](Oc1cc(-c2ccc(C3CCN(C)CC3)cc2)cc2nn(C)cc12)[C@H]1CNC(=O)C1 [Example 42, (4R)-4-[(1R)-1-[2-methyl-6-[4-(1-methyl-4-piperidyl)-phenyl]indazol-4-yl]oxyethyl]-pyrrolidin-2-one]
microsomal stability Cl [% Qh] [1, 4]: <23 % Qh
microsomal stability Cl [% Qh] ([1]; percent hepatic blood flow): <23 % Qh
IC50 (FLT3; [5]): 0.618 µM
IC50 [2, 6]: 0.63 µM
IC50 [3, 7]: 0.002 µM

C[C@@H](Oc1nc(-c2ccc(C(F)(F)F)nc2)cc2nn(C)cc12)[C@H]1CNC(=O)C1 [Example 61, (4R)-4-[(1R)-1-[2-methyl-6-[6-(trifluoromethyl)-3-pyridyl]pyrazolo[4,3-c]pyridin-4-yl]oxyethyl]pyrrolidin-2-one]
microsomal stability Cl [% Qh] [1, 4]: <23 % Qh
microsomal stability Cl [% Qh] ([1]; percent hepatic blood flow): <23 % Qh
IC50 (FLT3; [5]): 0.411 µM
IC50 [2, 6]: 0.25 µM
IC50 [3, 7]: 0.002 µM

C[C@@H](Oc1cc(-c2cscn2)cc2nn(C)cc12)[C@H]1CNC(=O)C1 [Example 29, (4R)-4-[(1R)-1-(2-methyl-6-thiazol-4-yl-indazol-4-yl)oxyethyl]pyrrolidin-2-one]
microsomal stability Cl [% Qh] [1, 4]: 44 % Qh
IC50 ([2]; read-out: AURB-inhibition IC50-value): > 50 µM
IC50 ([2]; read-out: IC50 in μM (AURB-Inhibition)): 0.293 µM
IC50 (Human GSK3beta; [8]): > 10 µM

C[C@@H](Oc1cc(-c2ccc(F)cn2)cc2nn(C)cc12)[C@H]1CNC(=O)C1 [Example 41, (4R)-4-[(1R)-1-[6-(5-fluoro-2-pyridyl)-2-methyl-indazol-4-yl]oxyethyl]pyrrolidin-2-one]
microsomal stability Cl [% Qh] [1, 4]: 37 % Qh
microsomal stability Cl [% Qh] ([1]; percent hepatic blood flow): <23 % Qh
IC50 (FLT3; [5]): 0.505 µM
IC50 [2, 6]: 0.308 µM
IC50 [3, 7]: 0.001 µM

COc1cc(-c2cc3nn(C)cc3c(O[C@H](C)[C@H]3CNC(=O)C3)n2)ccc1OC(C)C [Example 81, (4R)-4-[(1R)-1-[6-(4-isopropoxy-3-methoxy-phenyl)-2-methyl-pyrazolo-[4,3-c]pyridin-4-yl]oxyethyl]-pyrrolidin-2-one]
microsomal stability Cl [% Qh] [1, 4]: <23 % Qh
microsomal stability Cl [% Qh] [1, 12]: <23 % Qh
IC50 (FLT3; [5]): 0.514 µM
IC50 [2, 6]: 0.949 µM
IC50 [3, 7]: 0.003 µM

COc1ccc(-c2cc3nn(C)cc3c(O[C@H](C)[C@H]3CNC(=O)C3)n2)cc1OC [Example 1, (4R)-4-[(1R)-1-[6-(3,4-Dimethoxyphenyl)-2-methyl-pyrazolo[4,3-c]pyridin-4-yl]oxyethyl]pyrrolidin-2-one]
microsomal stability Cl [% Qh] [1, 12]: <23 % Qh
IC50 (FLT3; [9]): 1.53 µM
IC50 [2, 10]: 5.09 µM
IC50 [3, 11]: 0.009 µM

C[C@@H](Oc1nc(-c2cnn(C(C)(C)C)c2)cc2nn(C)cc12)[C@H]1CNC(=O)C1 [Example 2, (4R)-4-[(1R)-1-[6-(1-tert-Butylpyrazol-4-yl)-2-methyl-pyrazolo[4,3-c]pyridin-4-yl]oxyethyl]pyrrolidin-2-one]
microsomal stability Cl [% Qh] [1, 4]: 81 % Qh
microsomal stability Cl [% Qh] [1, 12]: <23 % Qh
IC50 (FLT3; [5]): 7.39 µM
IC50 [2, 6]: 16.9 µM
IC50 [3, 7]: 0.007 µM

(4R)-4-[(1R)-1-[2-methyl-6-(3-methyl-1-tetrahydropyran-4-yl-pyrazol-4-yl)pyrazolo-[4,3-c]pyridin-4-yl]oxyethyl]-pyrrolidin-2-one [Example 79]
IC50 (FLT3; read-out: FLT3-inhibition IC50-value): 26.7 µM
IC50 ([3]; read-out: SYK-inhibiton IC50-value): 0.0364 µM
